Measured values taken from patent publication US20240374510A1, “COMPOSITIONS, USES AND METHODS FOR TREATMENT OF PERIODONTAL DISEASE” (THE UNIVERSITY OF BRITISH COLUMBIA, priority 2023, published 2024).

B1: HB-EGF: EGFR ligand heparin-binding EGF-like growth factor (protein, UniProt Q99075 63-148, looked up)
Heparin-binding EGF-like …: DLQEADLDLLRVTLSSKPQALATPNKEEHGKRKKKGKGLGKKRDPCLRKYKDFCIHGECKYVKELRAPSCICHPGYHGERCHGLSL

Tests used:
ITGB6 [1] = details: Bi et al., 2020; cited from earlier work
[2] = test system: human gingival epithelial cell line (GEC); experiment: MTT test of cell viability and proliferation; assay type: cell-based; details: 24 h, unencapsulated gefitinib
Procedure: The spontaneously immortalized human gingival epithelial cell line (GEC; (Mäkelä et al., 1998)) was maintained in a humidified incubator at +37° C. with 95% relative humidity and 5% CO2 in DMEM supplemented with 23 mM sodium bicarbonate, 20 mM HEPES, 50 μg/ml streptomycin sulfate, 100 U/ml penicillin and 10% heat-inactivated fetal bovine serum (FBS; Gibco). […]
The MTT test (CellTiter Non-radioactive Cell Proliferation Assay, Promega, Madison, WI, USA) was used to assess the effect of the microparticle formulations on cell viability and proliferation (Twarużek et al., 2018). […] The Solubilization/Stop Solution was then added to the culture wells for 24 h to solubilize the formazan product, and the absorbance at 570 nm was recorded with a microplate reader (iMark, Bio-Rad Laboratories, Hercules, CA, USA). […]
In each test, the cells were exposed to the formulation being tested for 24 h and then analyzed for cell numbers using the MTT test. Absorbance values of the untreated samples in each replicate experiment were set to 1, and the mean±s.e.m. of the relative results of 10-18 replicated experiments is presented. *, relative to untreated cells; +, difference between the same concentration of gefitinib and control microparticles; */+, p<0.05; **/++, p<0.01; ***/+++, p<0.001. […]

[3] = In-vitro release rate of gefitinib by the dialysis sack method; assay type: physicochemical; details: artificial saliva and cell culture medium
Procedure: The release rate of gefitinib from microparticles as described herein into each of two different liquids was tested. The two test liquids were: artificial saliva (SAE0149, Sigma Aldrich) and Dulbecco's Modified Eagle Medium (DMEM; Gibco, Life Technologies, Inc., Burlington, ON, Canada). These liquids were used to simulate the environment of the oral cavity and body fluid, respectively.
In each of these in-vitro experiments, a dry powder of spray-dried microparticles according to one of the tested formulations was mixed into the applicable test liquid at a concentration of 20 μg dry powder per ml of test liquid.
The in-vitro release behaviors of the formulations identified as (*1), (*2), (*3), and (*4) in Table 2 were each tested by the dialysis sack method (cutoff molecular weight 8 kDa; Spectra Por; Spectrum Chemical Mfg. Corp., New Brunswick, NJ, USA). All samples were incubated at room temperature with continuous shaking at 70 rpm. […] The fluid was analyzed for gefitinib content by HPLC. The release rate of gefitinib from suspensions of dry powders in liquid was calculated from the ratio of released gefitinib to the total gefitinib encapsulated in the powders.
The release rate of unencapsulated gefitinib was measured according to the same protocol described above for the spray-dried microparticles.

ITGB6 [4] = experiment: Rescue of β6 integrin gene expression in GECs by RT-qPCR; assay type: cell-based, human
Procedure: GECs were seeded into cell culture dishes and allowed to grow to confluency for two days in their complete growth medium. The cells were then rinsed once with PBS and switched to FBS-free DMEM for 2 h in the presence or absence of one of: one of the suspensions of gefitinib-microparticles as above, one of the suspensions of respective control microparticles as above or 0.3 μM gefitinib. HB-EGF (5 ng/ml) and TGF-β1 (2 ng/ml; Millipore) were then added to the cells for a further 24 h.
The cells were then rinsed with PBS and used for RNA isolation and quantitative real-time reverse transcription PCR (RT-qPCR). Briefly, total RNA was extracted using PuroSPIN™ MINI Spin Columns (Luna Nanotech, Inc., Markham, ON, Canada) and the LogSpin method (Yaffe et al., 2012), and RNA concentration and purity were determined by spectrophotometry (NanoDrop One, Thermo Fisher Scientific, Waltham, MA, USA). 1 μg of total RNA was reverse-transcribed into cDNA using the High-Capacity cDNA Reverse Transcription Kit (Applied Biosystems, Thermo Fisher Scientific). […]
Asparagine-linked glycosylation 9 (ALG9) and glyceraldehyde-3-phosphate dehydrogenase (GAPDH) were used as reference genes for the target gene ITGB6 in triplicates. […] The data were analyzed using the Applied Biosystems Relative Quantification Analysis Module. […]

| Molecule | blocking of ITGB6 downregulation by HB-EGF (ITGB6 [1]) | further results |
| --- | --- | --- |
| COc1cc2ncnc(Nc3ccc(F)c(Cl)c3)c2cc1NC(=O)/C=C/CN1CCCCC1 [dacomitinib] | capable of dose-dependently blocking ITGB6 downregulation |  |
| C#Cc1cccc(Nc2ncnc3cc(OCCOC)c(OCCOC)cc23)c1 [erlotinib] | capable of dose-dependently blocking ITGB6 downregulation |  |
| C=CC(=O)Nc1cc2c(Nc3ccc(F)c(Cl)c3)ncnc2cc1OCCCN1CCOCC1 [canertinib] | capable of dose-dependently blocking ITGB6 downregulation |  |
| COc1cc2ncnc(Nc3ccc(F)c(Cl)c3)c2cc1OCCCN1CCOCC1 [gefitinib] | capable of dose-dependently blocking ITGB6 downregulation | gefitinib concentration giving the corresponding GEC growth inhibition (baseline levels) [2]: 0.3 µM; release rate of gefitinib, in words [3]: quickly released |
| TGF-β1: transforming growth factor-β1, used to upregulate ITGB6 |  | upregulation of ITGB6 expression (ITGB6 [4]; TGF-β1 alone, 2 ng/ml, 24 h): about seven-fold |
| CS(=O)(=O)CCNCc1ccc(-c2ccc3ncnc(Nc4ccc(OCc5cccc(F)c5)c(Cl)c4)c3c2)o1 [lapatinib] | capable of dose-dependently blocking ITGB6 downregulation |  |
| B1 |  | reduction of the TGF-β1 upregulation of ITGB6 (ITGB6 [4]; addition of HB-EGF 5 ng/ml to TGF-β1): about 60% |
